Tested on: class I antigen presentation gene expression in MCC cell lines
Test: RNA-seq / DESeq2 differential expression of MCC cell lines at baseline and after IFN-γ stimulation
Type: cell-based, human
Experimental: FIG. 2A comprises RNA-seq heatmaps of class I antigen presentation gene expression in MCC lines and controls.
FIG. 2B is a volcano plot of differentially expressed genes (genes below FDR cutoff 0.01 are shown in yellow) between baseline and IFN-γ-treated MCC cell lines. Differential expression analysis was performed using DESeq2, and negative LFC indicates increased expression in +IFN-γ samples. IFN genes are highlighted in red.
RNA samples were first assessed for quality using the Agilent Bioanalyzer (DV200 metric). One hundred ng of RNA were used as the input for first strand cDNA synthesis using Superscript III reverse transcriptase and Illumina's TruSeq RNA Access Sample Prep Kit. Synthesis of the second strand of cDNA was followed by indexed adapter ligation with UMI (unique molecular index) adaptors. Subsequent PCR amplification enriched for adapted fragments. Amplified libraries were quantified, normalized, pooled, and hybridized with exome targeting oligos. Following hybridization, bead clean-up, elution and PCR was performed to prepare library pools for sequencing on Illumina flowcell lanes. Transcriptomes were sequenced to a coverage of at least 50 million reads in pairs.
Raw fastq files for fibroblast and keratinocyte control lines were downloaded from SRA using R Bioconductor package SRAdb (Mayakonda et al. (2018) supra; Zhu et al. (2013) BMC Bioinformatics 14 (1): 1-4) using accession codes SRP126422 (4 replicates from control samples ‘NN’) and SRP131347 (6 replicates with condition: control and genotype: control). These fastq files, along with those for the mkl1 and waga cell lines, were aligned using STAR version 2.7.3a (Dobin et al. (2013) Bioinformatics 29 (1): 15-21), using index genome reference file downloaded from ftp.ebi.ac.uk/pub/databases/gencode/Gencode_human/release_19/GRCh37.p13.genome.fa.gz, transcript annotation file downloaded from data.broadinstitute.org/snowman/hg19/star/gencode.v19.annotation.gtf, and with the following options: --twopassMode Basic, --outSAMstrandField intronMotif, --alignIntronMax 1000000, --alignMatesGapMax 1000000, --sjdbScore 2, --outSAMtype BAM Unsorted, --outSAMattributes NH HI NM MD AS XS, --outFilterType BySJout, --outSAMunmapped Within, --genomeLoad NoSharedMemory, --outFilterScoreMinOverLread 0, --outFilterMatchNminOverLread 0, --outFilterMismatchNmax 999, and outFilterMultimapNmax 20. Duplicates were marked with picard MarkDuplicates version 2.22.0-SNAPSHOT.
RNA-sequencing bam files for MCC tumor and cell line samples were downloaded from the Broad Genomics Firecloud/Terra platform using the Google Cloud Storage command line tool gsutil version 4.5 (github.com/GoogleCloudPlatform/gsutil/).
Gene counts were obtained from bam files using featureCounts version 2.0.0 (doi.org/10.1093/bioinformatics/btt656). Very lowly expressed genes with average count across samples less than 1 were excluded from analysis. Between-sample distance metrics were computed using the Euclidean distance on the vectors of variance-stabilized counts obtained from the vst function in the DESeq2 R Bioconductor package ([…]; Love et al. (2014) Genome Biology 15 (12): 550).
Differential expression analysis was carried out between (1) viral positive and viral negative samples (adjusting for cell line or tumor as a covariate), (2) cell line and tumor samples (adjusting for viral status as a covariate), and (3) IFNγ plus and minus samples (adjusting for viral status as a covariate) using the negative binomial GLM Wald test of DESeq2, where significance was assessed using the p-values adjusted for multiple comparisons under default settings. To account for potential global gene expression differences among sample groups, RUVg (Risso et al. (2014) […] 32 (9): 896-902) was used to estimate latent factors of unwanted variation from the list of housekeeping genes downloaded from www.tau.ac.il/˜elieis/HKG/HK_genes.txt. […]

[1] = 11 MCC cell lines, baseline vs IFNγ, negative LFC = upregulation in IFNγ-treated

Substance: IFN-y: type II interferon, recombinant human, used to treat MCC cells
- class I genes mRNA expression (RNA-seq) (10 of 11 MCC lines, baseline vs treated): markedly upregulated
- log2FoldChange ACSL5 (ENSG00000197142.6) [1]: −5.831
- log2FoldChange ADAR (ENSG00000160710.11) [1]: −1.068
- log2FoldChange ADGRF3 (ENSG00000173567.10) [1]: −0.853
- log2FoldChange ATP2C1 (ENSG00000017260.15) [1]: −0.5502
- log2FoldChange ATP10D (ENSG00000145246.9) [1]: −2.417
- log2FoldChange AZIN2 (ENSG00000142920.12) [1]: −1.224
- log2FoldChange BATF2 (ENSG00000168062.5) [1]: −7.362
- log2FoldChange BCL2L14 (ENSG00000121380.8) [1]: −5.59
- log2FoldChange BCL6 (ENSG00000113916.13) [1]: −2.953
- log2FoldChange BTN2A1 (ENSG00000112763.11) [1]: −0.9873
- log2FoldChange BTN2A3P (ENSG00000124549.10) [1]: −4.459
- log2FoldChange BTN3A1 (ENSG00000026950.12) [1]: −6.582
- log2FoldChange BTN3A2 (ENSG00000186470.9) [1]: −6.089
- log2FoldChange BTN3A3 (ENSG00000111801.11) [1]: −6.93
- log2FoldChange C1QB (ENSG00000173369.11) [1]: −3.233
- log2FoldChange C2 (ENSG00000166278.10) [1]: −4.096
- log2FoldChange C4A (ENSG00000244731.3) [1]: −1.245
- log2FoldChange C4B (ENSG00000224389.4) [1]: −2.248
- log2FoldChange C5orf56 (ENSG00000197536.6) [1]: −3.71
- log2FoldChange CARD16 (ENSG00000204397.3) [1]: −6.289
- log2FoldChange CASC6 (ENSG00000224944.1) [1]: −3.263
- log2FoldChange CASP1 (ENSG00000137752.18) [1]: −7.907
- log2FoldChange CASP4 (ENSG00000196954.8) [1]: −4.024
- log2FoldChange CASP7 (ENSG00000165806.15) [1]: −1.833
- log2FoldChange CCDC73 (ENSG00000186714.8) [1]: −2.84
- log2FoldChange CCND1 (ENSG00000110092.3) [1]: −5.698
- log2FoldChange CD74 (ENSG00000019582.10) [1]: −8.494
- log2FoldChange CD274 (ENSG00000120217.9) [1]: −6.119
- log2FoldChange CDC20 (ENSG00000117399.9) [1]: 0.6763
- log2FoldChange CFB (ENSG00000243649.4) [1]: −7.333
- log2FoldChange CIR1 (ENSG00000138433.11) [1]: −0.5344
- log2FoldChange CLVS1 (ENSG00000177182.6) [1]: −3.934
- log2FoldChange CMPK2 (ENSG00000134326.7) [1]: −2.83
- log2FoldChange CSF1 (ENSG00000184371.9) [1]: −3.741
- log2FoldChange CTSO (ENSG00000256043.2) [1]: −3.005
- log2FoldChange CXCL9 (ENSG00000138755.5) [1]: −11.74
- log2FoldChange CXCL10 (ENSG00000169245.4) [1]: −5.89
- log2FoldChange CXCL11 (ENSG00000169248.8) [1]: −4.672
- log2FoldChange DDO (ENSG00000203797.5) [1]: −4.692
- log2FoldChange DDX58 (ENSG00000107201.5) [1]: −2.939
- log2FoldChange DDX60 (ENSG00000137628.12) [1]: −7.298
- log2FoldChange DDX60L (ENSG00000181381.9) [1]: −3.461
- log2FoldChange DNPEP (ENSG00000123992.14) [1]: −1.703
- log2FoldChange DTX3L (ENSG00000163840.5) [1]: −4.603
- log2FoldChange EIF2AK2 (ENSG00000055332.12) [1]: −1.367
- log2FoldChange ENSG00000121848.9 (symbol NA) [1]: −0.3499
- log2FoldChange ENSG00000197146.2 (symbol NA) [1]: −1.6
- log2FoldChange ENSG00000202533.1 (symbol NA) [1]: −3.684
- log2FoldChange ENSG00000213500.3 (symbol NA) [1]: −2.007
- log2FoldChange ENSG00000224666.2 (symbol NA) [1]: −5.276
- log2FoldChange ENSG00000224789.1 (symbol NA) [1]: −2.338
- log2FoldChange ENSG00000225931.3 (symbol NA) [1]: −4.205
- log2FoldChange ENSG00000229023.1 (symbol NA) [1]: −4.669
- log2FoldChange ENSG00000229677.1 (symbol NA) [1]: −2.162
- log2FoldChange ENSG00000230812.1 (symbol NA) [1]: −5.173
- log2FoldChange ENSG00000231280.1 (symbol NA) [1]: −5.122
- log2FoldChange ENSG00000232709.1 (symbol NA) [1]: −3.863
- log2FoldChange ENSG00000233892.1 (symbol NA) [1]: −1.246
- log2FoldChange ENSG00000234290.2 (symbol NA) [1]: −2.28
- log2FoldChange ENSG00000238000.1 (symbol NA) [1]: −1.895
- log2FoldChange ENSG00000238160.1 (symbol NA) [1]: −3.274
- log2FoldChange ENSG00000238991.1 (symbol NA) [1]: −3.733
- log2FoldChange ENSG00000245025.2 (symbol NA) [1]: −3.838
- log2FoldChange ENSG00000248693.1 (symbol NA) [1]: −3.648
- log2FoldChange ENSG00000252206.1 (symbol NA) [1]: −2.445
- log2FoldChange ENSG00000260336.1 (symbol NA) [1]: −2.736
- log2FoldChange ENSG00000261618.1 (symbol NA) [1]: −6.277
- log2FoldChange ENSG00000271581.1 (symbol NA) [1]: −4.138
- log2FoldChange ENSG00000271646.1 (symbol NA) [1]: −1.853
- log2FoldChange ENSG00000272941.1 (symbol NA) [1]: −7.747
- log2FoldChange ERAP1 (ENSG00000164307.8) [1]: −2.331
- log2FoldChange ERAP2 (ENSG00000164308.12) [1]: −3.931
- log2FoldChange ETV7 (ENSG00000010030.9) [1]: −5.205
- log2FoldChange FAM110C (ENSG00000184731.5) [1]: −3.465
- log2FoldChange FAM111A (ENSG00000166801.11) [1]: −2.679
- log2FoldChange FAM186B (ENSG00000135436.4) [1]: −1.748
- log2FoldChange FAS (ENSG00000026103.15) [1]: −2.315

Reference: US20230203485A1, “METHODS FOR MODULATING MHC-I EXPRESSION AND IMMUNOTHERAPY USES THEREOF” (Dana-Farber Cancer Institute, Inc., priority 2020, published 2023)
